System: 292921-168-R-J2-PDC complex spheroid viability
Test: Anticancer human tumor 292921-168-R-J2-PDC patient-derived pancreatic carcinoma cell line growth inhibition
Settings: for IC50: curve of first compound; for viability, T/C: stronger effect = lower value
Excerpt: Multicellular complex tumor spheroid response to LSD1 Inhibitor Iadademstat in combination with a variety of drugs and investigational agents in selected tumor cell lines
The current study was undertaken to assess response to LSD1 inhibitors in combination with standard-of-care drugs and investigational agents in solid tumor complex spheroid models as well as in the K-562 leukemia. Complex spheroids include a stromal component modeled by human endothelial cells (HUVEC) and fibroblasts modeled by human mesenchymal stem cells (MSCs). The concentration ranges selected for each drug and investigational agent were based upon clinically achievable concentrations if the clinical Cmax of the agent was known.
Compounds. The drugs and investigational agents used in this study are listed on Table 1. All of the agents used, including staurosporine (NSC755774) and gemcitabine (NSC613327), were obtained from the Developmental Therapeutics Program, NCI. FDA-approved anticancer drugs are available from the NCI at http://dtp.nci.nih.gov/branches/dscb/oncology_drugset_explanation.html. Drugs and investigational agents were >95% pure by proton nuclear magnetic resonance (NMR) and liquid chromatography/mass spectrometry (LC/MS). Stock solutions were prepared at 400x in DMSO, stored at -70 degrees C, and diluted in fresh medium prior to their use. The final concentration of DMSO in cell culture wells never exceeded 0.25% (v/v). The FDA-approved anticancer drug set is available from the Developmental Therapeutics Program at https://dtp.cancer.gov/organization/dscb/obtaining/available_plates.htm. All drugs and investigational agents were tested over a range starting from a high concentration at or near the clinical Cmax and decreasing in half-log increments. If the clinical Cmax for an agent had not been determined, the highest concentration tested was 10 microM.
Cell Lines. The patient-derived cancer cell (PDC) lines: 292921-168-R-J2-PDC, K24384-001-R-PDC, and 521955-158-R2-J5-PDC pancreatic carcinomas, 556581-035-R-J1 ovarian carcinoma, 324938-238-R-J1-PDC, 855422-203-R-J1-PDC and 883617-216-R-J1-PDC urothelial bladder carcinomas, 743489-274-T-PDC renal cell carcinoma, 138582-R-J1 Merkel cell tumor, K60290-347-R-J1 and K57222-313-R-J1-PDC glioblastomas, 653999-131-R-J2-PDC, LG0703-F948-PDC, and 349418-098-R-PDC non-small cell lung carcinomas, 885512-296-R-J2-PDC, 171881-019-R-J1-PDC breast carcinomas and 186277-243-T-J2-PDC and 233499-124-R-J2-PDC colon carcinomas were obtained from the NCI Patient-Derived Models Repository (PDMR, https://pdmr.cancer.gov). The established cell lines NCI/ADR-RES (RRID:CVCL_14520 and OVCAR-5 (RRID:CVCL_1628) ovarian carcinomas, 786-O (RRID:CVCL_1051) and A498 (RRID:CVCL_A498) renal cell carcinoma, NCI-H211 (ATCC, cat. CRL-5824; RRID:CVCL_1529), NCI-H196 (ATCC, cat. CRL-5823, RRID:CVCL_1509), SW 1271 (ATCC, cat. CRL-2177, RRID:CVCL_1716) and NCI-H1876 (ATCC, cat. CRL-5902, RRID:CVCL_1503) small cell lung carcinomas, MDA-MB-231 (RRID:CVCL_0062) and MDA-MB-468 (RRID:CVCL_0419)breast carcinomas (10-12). Pooled donor human umbilical vein endothelial cells (HUVEC, Lonza, cat. CC-2519) and human mesenchymal stem cells (hMSC, Lonza, cat. PT-2501) were purchased from Lonza (Walkersville, MD).
Cell Culture. All cells were maintained in an incubator at 37 degrees C and 5% CO2 with 95% humidity. The PDC lines were cultured according to standard operating procedures established by the NCI PDMR (https://pdmr.cancer.gov). Briefly all PDCs were thawed and cultured in Matrigel-coated flasks prepared with a working solution of 1X Ham's F-12 nutrient mix, without supplementation (Invitrogen, Waltham, MA, cat. 11765054), 100 U/mL penicillin-streptomycin (Invitrogen, cat. 15140122), and 2.5% Matrigel (Corning Inc., Corning, NY, cat. 354248) for the first three passages. […]
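Note: seven day compound exposure before luminescent viability read.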
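Throughout, for viability, T/C: 100% = DMSO vehicle control wells.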

## CC1(C)CCC(CN2CCN(c3ccc(C(=O)NS(=O)(=O)c4ccc(NCC5CCOCC5)c([N+](=O)[O-])c4)c(Oc4cnc5[nH]ccc5c4)c3)CC2)=C(c2ccc(Cl)cc2)C1 + NC1CC1c1ccc(-c2cccc(O)c2)cc1
Second compound 0.1 µM
  IC50: 1.86 µM
Second compound 0.316 µM
  IC50: 1.75 µM
Second compound 1 µM
  IC50: 1.75 µM
Second compound 3.16 µM
  IC50: 1.39 µM
Second compound 10 µM
  IC50: 0.958 µM
Second compound 0.1 µM, first compound 0.0316 µM
  viability, T/C: 75.5%
Second compound 0.1 µM, first compound 0.1 µM
  viability, T/C: 92.6%
Second compound 0.1 µM, first compound 0.316 µM
  viability, T/C: 81.9%
Second compound 0.1 µM, first compound 1 µM
  viability, T/C: 82.8%
Second compound 0.1 µM, first compound 3.16 µM
  viability, T/C: 22.1%
Second compound 0.1 µM, first compound 10 µM
  viability, T/C: 0.22%
Second compound 0.316 µM, first compound 0.0316 µM
  viability, T/C: 72.5%
Second compound 0.316 µM, first compound 0.1 µM
  viability, T/C: 79.7%
Second compound 0.316 µM, first compound 0.316 µM
  viability, T/C: 74.5%
Second compound 0.316 µM, first compound 1 µM
  viability, T/C: 78.2%
Second compound 0.316 µM, first compound 3.16 µM
  viability, T/C: 22.5%
Second compound 0.316 µM, first compound 10 µM
  viability, T/C: 0.21%
Second compound 1 µM, first compound 0.0316 µM
  viability, T/C: 67.8%
Second compound 1 µM, first compound 0.1 µM
  viability, T/C: 68.3%
Second compound 1 µM, first compound 0.316 µM
  viability, T/C: 71.7%
Second compound 1 µM, first compound 1 µM
  viability, T/C: 78%
Second compound 1 µM, first compound 3.16 µM
  viability, T/C: 27.1%
Second compound 1 µM, first compound 10 µM
  viability, T/C: 0.27%
Second compound 3.16 µM, first compound 0.0316 µM
  viability, T/C: 62.4%
Second compound 3.16 µM, first compound 0.1 µM
  viability, T/C: 59%
Second compound 3.16 µM, first compound 0.316 µM
  viability, T/C: 58.3%
Second compound 3.16 µM, first compound 1 µM
  viability, T/C: 65.6%
Second compound 3.16 µM, first compound 3.16 µM
  viability, T/C: 21.6%
Second compound 3.16 µM, first compound 10 µM
  viability, T/C: 0.19%
Second compound 10 µM, first compound 0.0316 µM
  viability, T/C: 49.8%
Second compound 10 µM, first compound 0.1 µM
  viability, T/C: 58.4%
Second compound 10 µM, first compound 0.316 µM
  viability, T/C: 52.4%
Second compound 10 µM, first compound 1 µM
  viability, T/C: 49.9%
Second compound 10 µM, first compound 3.16 µM
  viability, T/C: 12.1%
Second compound 10 µM, first compound 10 µM
  viability, T/C: 0.19%

## Nc1ccccc1NC(=O)c1ccc(CNC(=O)OCc2cccnc2)cc1 + NC1CCC(NC2CC2c2ccccc2)CC1
Second compound 0.1 µM
  IC50: 0.0287 µM
Second compound 0.316 µM
  IC50: 0.0151 µM
Second compound 1 µM
  IC50: < 0.00949 µM
Second compound 3.16 µM
  IC50: 0.0131 µM
Second compound 10 µM
  IC50: < 0.00949 µM
Second compound 0.1 µM, first compound 0.00949 µM
  viability, T/C: 61.3%
Second compound 0.1 µM, first compound 0.03 µM
  viability, T/C: 48.3%
Second compound 0.1 µM, first compound 0.0949 µM
  viability, T/C: 34.6%
Second compound 0.1 µM, first compound 0.3 µM
  viability, T/C: 20.5%
Second compound 0.1 µM, first compound 0.949 µM
  viability, T/C: 3.31%
Second compound 0.1 µM, first compound 3 µM
  viability, T/C: 0.22%
Second compound 0.316 µM, first compound 0.00949 µM
  viability, T/C: 53.1%
Second compound 0.316 µM, first compound 0.03 µM
  viability, T/C: 45.2%
Second compound 0.316 µM, first compound 0.0949 µM
  viability, T/C: 34.6%
Second compound 0.316 µM, first compound 0.3 µM
  viability, T/C: 18.8%
Second compound 0.316 µM, first compound 0.949 µM
  viability, T/C: 3.86%
Second compound 0.316 µM, first compound 3 µM
  viability, T/C: 0.24%
Second compound 1 µM, first compound 0.00949 µM
  viability, T/C: 50.8%
Second compound 1 µM, first compound 0.03 µM
  viability, T/C: 39.9%
Second compound 1 µM, first compound 0.0949 µM
  viability, T/C: 33.4%
Second compound 1 µM, first compound 0.3 µM
  viability, T/C: 20.6%
Second compound 1 µM, first compound 0.949 µM
  viability, T/C: 3.16%
Second compound 1 µM, first compound 3 µM
  viability, T/C: 0.22%
Second compound 3.16 µM, first compound 0.00949 µM
  viability, T/C: 52.9%
Second compound 3.16 µM, first compound 0.03 µM
  viability, T/C: 43%
Second compound 3.16 µM, first compound 0.0949 µM
  viability, T/C: 27.2%
Second compound 3.16 µM, first compound 0.3 µM
  viability, T/C: 16.3%
Second compound 3.16 µM, first compound 0.949 µM
  viability, T/C: 2.26%
Second compound 3.16 µM, first compound 3 µM
  viability, T/C: 0.38%
Second compound 10 µM, first compound 0.00949 µM
  viability, T/C: 42.5%
Second compound 10 µM, first compound 0.03 µM
  viability, T/C: 39.5%
Second compound 10 µM, first compound 0.0949 µM
  viability, T/C: 26.8%
Second compound 10 µM, first compound 0.3 µM
  viability, T/C: 14.2%
Second compound 10 µM, first compound 0.949 µM
  viability, T/C: 0.79%
Second compound 10 µM, first compound 3 µM
  viability, T/C: 0.3%
